Test results taken from the CheMixHub viscosity set.
Several values for one entry are separate records, joined by “and”; a condition that tells them apart may be missing. Identical values can stand only once.

Assay: xn = mol fraction of the nth substance listed

CCOC(=O)CCl + Cc1ccc(C)cc1
viscosity [mPa·s], 101.3 kPa
Settings | x1 = 0.0994 | x1 = 0.1995 | x1 = 0.3008 | x1 = 0.3992 | x1 = 0.5001 | x1 = 0.601 | x1 = 0.6994 | x1 = 0.7968 | x1 = 0.8943
298.15 K | 0.635 | 0.663 | 0.699 | 0.735 | 0.783 | 0.832 | 0.886 | 0.949 | 1.017
303.15 K | 0.599 | 0.624 | 0.656 | 0.691 | 0.734 | 0.778 | 0.827 | 0.882 | 0.945
308.15 K | 0.563 | 0.586 | 0.615 | 0.646 | 0.686 | 0.726 | 0.768 | 0.816 | 0.874

CCCCOCCO + Cc1cccc(C)c1
viscosity [mPa·s], 101 kPa
Settings | 298.15 K | 308.15 K
x1 = 0.056 | 0.625 | 0.534
x1 = 0.152 | 0.711 | 0.602
x1 = 0.2496 | 0.813 | 0.686
x1 = 0.3506 | 0.941 | 0.786
x1 = 0.4512 | 1.095 | 0.908
x1 = 0.5022 | 1.185 | 0.979
x1 = 0.5529 | 1.284 | 1.056
x1 = 0.6487 | 1.501 | 1.225
x1 = 0.7505 | 1.781 | 1.442
x1 = 0.8511 | 2.122 | 1.704
x1 = 0.9549 | 2.56 | 2.037

CCCCCCCCN(CCCCCCCC)CCCCCCCC + Cc1ccccc1
298.15 K, 101.33 kPa
Settings | viscosity [mPa·s]
x1 = 0.015 | 0.595
x1 = 0.033 | 0.646
x1 = 0.075 | 0.775
x1 = 0.231 | 1.405

CCCCOCCO + Cc1ccccc1
viscosity [mPa·s], 101 kPa
Settings | 298.15 K | 308.15 K
x1 = 0.055 | 0.593 | 0.531
x1 = 0.1509 | 0.678 | 0.597
x1 = 0.2513 | 0.784 | 0.679
x1 = 0.3489 | 0.909 | 0.775
x1 = 0.4511 | 1.066 | 0.896
x1 = 0.5015 | 1.156 | 0.965
x1 = 0.5525 | 1.257 | 1.042
x1 = 0.6512 | 1.483 | 1.215
x1 = 0.7494 | 1.759 | 1.425
x1 = 0.8498 | 2.105 | 1.689
x1 = 0.9541 | 2.551 | 2.03

CCOC(=O)CCl + Cc1ccccc1
viscosity [mPa·s], 101.3 kPa
Settings | x1 = 0.1004 | x1 = 0.207 | x1 = 0.299 | x1 = 0.4013 | x1 = 0.5048 | x1 = 0.6083 | x1 = 0.6963 | x1 = 0.8022 | x1 = 0.9006
298.15 K | 0.594 | 0.631 | 0.671 | 0.714 | 0.768 | 0.823 | 0.878 | 0.945 | 1.02
303.15 K | 0.561 | 0.594 | 0.63 | 0.669 | 0.719 | 0.77 | 0.818 | 0.881 | 0.947
308.15 K | 0.528 | 0.559 | 0.59 | 0.626 | 0.671 | 0.718 | 0.758 | 0.817 | 0.873

O=C(OCc1ccccc1)c1ccccc1 + Cc1ccccc1
298.15 K, 101 kPa
Settings | viscosity [mPa·s]
x1 = 0.2369 | 1.183
x1 = 0.4262 | 2.015
x1 = 0.6505 | 3.614
x1 = 0.789 | 5.08
x1 = 0.9002 | 6.66

c1ccc2c(c1)CCCC2 + Cc1ccccc1
101.3 kPa
Settings | viscosity
298 K, x2 = 0.2 | 1.55 mPa·s
298.1 K, x2 = 0.4 | 1.133 mPa·s
298.2 K, x2 = 0.6 | 0.9208 mPa·s
298.2 K, x2 = 0.8 | 0.7036 mPa·s
303.2 K, x2 = 0.5 | 0.9625 mPa·s
308.2 K, x2 = 0.4 | 0.9772 mPa·s
308.2 K, x2 = 0.6 | 0.8034 mPa·s
308.2 K, x2 = 0.8 | 0.6177 mPa·s and 0.6155 mPa·s
313.1 K, x2 = 0.2 | 1.209 mPa·s
313.1 K, x2 = 0.5 | 0.8373 mPa·s
318.1 K, x2 = 0.4 | 0.8532 mPa·s
318.2 K, x2 = 0.6 | 0.7034 mPa·s
318.2 K, x2 = 0.8 | 0.553 mPa·s
323.1 K, x2 = 0.5 | 0.7376 mPa·s

CCCCOCCO + Cc1ccccc1C
viscosity [mPa·s], 101 kPa
Settings | 298.15 K | 308.15 K
x1 = 0.0549 | 0.797 | 0.686
x1 = 0.1475 | 0.891 | 0.756
x1 = 0.2508 | 1.004 | 0.84
x1 = 0.3485 | 1.129 | 0.933
x1 = 0.4527 | 1.286 | 1.052
x1 = 0.5 | 1.366 | 1.113
x1 = 0.5489 | 1.457 | 1.182
x1 = 0.6483 | 1.666 | 1.341
x1 = 0.7518 | 1.925 | 1.54
x1 = 0.8493 | 2.216 | 1.765
x1 = 0.9524 | 2.586 | 2.053
